Results as given in PMC9073274, “The toxic effects of alizarin red S on catalase at the molecular level” (RSC Advances, 2019).

Tests used:
[1] = molecular target: T1, CAT (catalase from bovine liver) (Bos taurus, UniProt P00432); experiment: H2O2 decomposition, absorbance at […] nm; format: biochemical
T1 construct: native commercial enzyme from bovine liver (Beijing Solarbio); heme homotetramer, 506 residues per subunit
T1 sequence (P00432 2-527): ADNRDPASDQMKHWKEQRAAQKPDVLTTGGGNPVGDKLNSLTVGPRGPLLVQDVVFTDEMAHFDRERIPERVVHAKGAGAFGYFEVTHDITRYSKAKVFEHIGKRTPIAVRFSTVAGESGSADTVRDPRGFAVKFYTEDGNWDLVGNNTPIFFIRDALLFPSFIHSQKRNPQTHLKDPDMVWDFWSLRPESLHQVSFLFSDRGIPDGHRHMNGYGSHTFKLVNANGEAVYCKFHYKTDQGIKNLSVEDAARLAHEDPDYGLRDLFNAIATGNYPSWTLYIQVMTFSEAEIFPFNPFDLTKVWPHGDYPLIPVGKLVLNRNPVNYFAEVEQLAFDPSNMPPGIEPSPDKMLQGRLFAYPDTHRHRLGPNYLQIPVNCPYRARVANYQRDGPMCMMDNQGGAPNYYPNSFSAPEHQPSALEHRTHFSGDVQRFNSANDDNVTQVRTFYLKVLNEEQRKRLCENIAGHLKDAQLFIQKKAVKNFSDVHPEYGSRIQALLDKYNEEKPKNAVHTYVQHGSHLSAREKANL

[2] = molecular target: T1, CAT (catalase from bovine liver); experiment: isothermal titration calorimetry, one-site model; format: binding; conditions: read-out: K (M^-1)
Source text: isothermal titration calorimetry, one-site model on CAT (catalase from bovine liver)

Structure (SMILES): O=C1c2ccccc2C(=O)c2c1cc(S(=O)(=O)O)c(O)c2O [Alizarin red S]
- inhibition at 5 µM [1]: 23.8%
- Kd [2]: 39.2 µM
